Measured values from patent US5264429A, “2-spirocyclopropyl cephalosporin sulfone derivatives” (SynPhar Laboratories, Inc., priority 1991, dated 1993).
Read-outs that look alike come from different tables or passages of the source.

Assays:
[1] = target: T1, porcine pancreatic elastase (Sus scrofa, UniProt P00772); experiment: Inhibition of porcine pancreatic elastase (PPE); assay type: biochemical; settings: porcine pancreatic elastase 240 nM, pH 8.9, 10 minute preincubation, 30° C.
T1 construct: from tissue; host or cells: porcine pancreas
Experimental: HLE, CTG, PPE and CTD were tested at 30° C. and the others were
aminopeptidase M; CTG, cathespin G; CTD, cathespin D; PPE, porcine
Porcine pancreatic Elastase (PPE)
Enzyme: Purified elastase from porcine pancreas
Substrate: MeO-succinyl-L-alanyl-L-alanyl-L-prolyl-L-valine-pNA
Reaction mixture: 50 mM Tris[Tris(hydroxymethyl) aminomethane]. HCl buffer (pH 8.9), 500 mM NaCl, 10% DMSO, 1.4 mM Substrate.
Except for Cathepsin D, the enzyme activities were determined by monitoring the increase in absorbance at 410 nm caused by the hydrolysis of chromogenic substrates. The activity of Cathepsin D was determined by monitoring the absorbance of 5% trichloroacetic acid-soluble material at 280 nm.
(§1) Inhibition of enzymes by the compounds described were determined after a 10 minute preincubation with enzymes in reaction mixtures minus substrate. Reactions were initiated by the addition of substrates. The concentration used for assays were porcine pancreatic elastase at 240 nM and human Cathepsin G at 50 nM. Cathepsin D was used at the concentration that produced approximately 0.15 O.D. increase per 20 min at 280 nm under the standard conditions. All other proteases were assayed at the concentrations that produced approximately 0.1 O.D. change per minute at 410 nm under the standard conditions.

trypsin = target: T2, trypsin (Bos taurus, UniProt P00760); experiment: Inhibition of trypsin (TRY); assay type: biochemical, bovine
T2 construct: from tissue; host or cells: bovine pancreas
T2 sequence (P00760 24-246): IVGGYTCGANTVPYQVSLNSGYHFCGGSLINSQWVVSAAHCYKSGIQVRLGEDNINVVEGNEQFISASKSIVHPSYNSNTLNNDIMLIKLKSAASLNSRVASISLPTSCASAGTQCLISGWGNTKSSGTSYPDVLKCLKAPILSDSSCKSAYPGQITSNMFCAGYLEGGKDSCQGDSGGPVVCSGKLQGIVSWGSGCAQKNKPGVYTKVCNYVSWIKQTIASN
Experimental: Enzyme: Purified trypsin from bovine pancreas
Substrate: Bz-L-arginine-p-NA
Reaction mixture: 50 mM Tricine[N-Tris(hydroxymethyl)methylglycine]-NaOH buffer (pH 8.8) 150 mM NaCl, 10% DMSO 1.0 mM Substrate.
Inhibition of enzymes by the compounds described were determined after a 10 minute preincubation with enzymes in reaction mixtures minus substrate. Reactions were initiated by the addition of substrates. […] All other proteases were assayed at the concentrations that produced approximately 0.1 O.D. change per minute at 410 nm under the standard conditions.

cathepsin D = target: T3, cathepsin D (Bos taurus, UniProt P80209); experiment: Inhibition of cathepsin D (CTD); assay type: biochemical, bovine; settings: cathepsin D, pH 3.2, 10 minute preincubation, 30° C.; read-out: IC50 CTD
T3 construct: from tissue; host or cells: bovine spleen
Experimental: as §1, with “Except for Cathepsin D, the enzyme activities were determined by monitoring the increase in absorbance at 410 nm caused by the hydrolysis of chromogenic substrates. The activity of Cathepsin D was determined by monitoring the absorbance of 5% trichloroacetic acid-soluble material at 280 nm. Inhibition” for “Inhibition”, “The concentration used for assays were porcine pancreatic elastase at 240 nM and human Cathepsin G at 50 nM.” left out

[2] = trypsin, pH 8.8, 10 minute preincubation, 22° C., read-out: IC50 TRY (converted)

T1 sequence (P00772 27-266): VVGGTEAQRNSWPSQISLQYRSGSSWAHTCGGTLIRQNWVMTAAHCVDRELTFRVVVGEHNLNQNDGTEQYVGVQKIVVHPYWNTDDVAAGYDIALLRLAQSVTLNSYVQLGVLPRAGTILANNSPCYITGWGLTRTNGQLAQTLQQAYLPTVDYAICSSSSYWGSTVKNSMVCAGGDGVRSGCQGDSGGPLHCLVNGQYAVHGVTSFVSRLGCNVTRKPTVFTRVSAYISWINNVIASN
T3 sequence (P80209 45-390): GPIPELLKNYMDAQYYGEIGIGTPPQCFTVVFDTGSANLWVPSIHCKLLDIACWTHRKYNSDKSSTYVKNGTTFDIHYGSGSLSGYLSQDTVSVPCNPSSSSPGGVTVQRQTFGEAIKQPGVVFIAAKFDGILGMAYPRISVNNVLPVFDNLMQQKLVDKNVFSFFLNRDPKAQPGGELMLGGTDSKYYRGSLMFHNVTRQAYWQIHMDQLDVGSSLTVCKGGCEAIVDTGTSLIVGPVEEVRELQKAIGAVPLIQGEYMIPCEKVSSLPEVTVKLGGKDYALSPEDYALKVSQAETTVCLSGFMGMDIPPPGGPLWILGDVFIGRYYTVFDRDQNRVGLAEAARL

`CO[C@H]1C(=O)N2C(C(=O)N3CCCC3)=C(C)C3(CC3(c3ccccc3)c3ccccc3)S(=O)(=O)[C@H]12` (stereo partly drawn) [Example 10, 7α-Methoxy-2-spiro (2',2'-diphenyl)cyclopropyl-3-methyl-3-cephem-4-pyrrolidine carboxamide-1,1-dioxide] was tested, and the IC50 [1] was 0.0832 µM, the IC50 (trypsin; [2]) was > 35.9 µM and the IC50 (cathepsin D) was > 9.97 µM.
For `CC1=C(C(=O)OC(C)(C)C)N2C(=O)[C@H](Br)[C@H]2S(=O)(=O)C12CC2(c1ccccc1)c1ccccc1` (stereo partly drawn) [Example 3, t-Butyl 7α-bromo-2-spiro(2',2'-diphenyl) cyclopropyl-3-methyl-3-cephem 4-carboxylate-1,1-dioxide], the IC50 [1] was 0.0937 µM, the IC50 (trypsin; [2]) was > 40 µM and the IC50 (cathepsin D) was > 50 µM.
With `CC1=C(C(=O)OC(c2ccccc2)c2ccccc2)N2C(=O)[C@H](Br)[C@H]2S(=O)(=O)C12CC2(c1ccccc1)c1ccccc1` (single isomer, unassigned) [Example 2, benzhydryl 7α-bromo-2-spiro(2', 2'-diphenyl) cyclopropyl-3-methyl-3-cephem-4-carboxylate-1,1-dioxide] the IC50 [1] was 0.0183 µM, the IC50 (trypsin; [2]) was > 37 µM and the IC50 (cathepsin D) was > 50 µM.
`CC1=C(C(=O)OC(c2ccccc2)c2ccccc2)N2C(=O)[C@H](Br)[C@H]2S(=O)(=O)C12CC2(c1ccc(F)cc1)c1ccc(F)cc1` (single isomer, unassigned) [Example 13, Benzhydryl 7α-bromo-2-spiro[2',2'-(4',4'-difluoro)diphenyl] cyclopropyl-3-methyl-3-cephem-4-carboxylate-1,1-dioxide] was tested, and the IC50 [1] was 0.0637 µM, the IC50 (trypsin) was > 40 µM and the IC50 (cathepsin D) was > 50 µM.
`CCOC(=O)C1CC12C(C)=C(C(=O)OC(c1ccccc1)c1ccccc1)N1C(=O)[C@H](Br)[C@H]1S2(=O)=O` (stereo partly drawn) [Example 13 (1), Benzhydryl 7α-bromo-2-spiro(2'-ethoxycarbonyl)cyclopropyl-3-methyl-3-cephem-4-carboxylate-1,1-dioxide] was tested, and the IC50 [1] was 0.0313 µM, the IC50 (trypsin; [2]) was 0.58 µM and the IC50 (cathepsin D) was > 50 µM.
In the case of `CC1=C(C(=O)OC(c2ccccc2)c2ccccc2)N2C(=O)[C@H](Cl)[C@H]2S(=O)(=O)C12CC2(c1ccccc1)c1ccccc1` (single isomer, unassigned) [Example 1, Benzhydryl 7α-chloro-2-spiro(2',2'-diphenyl) cyclopropyl-3-methyl-3-cephem-4-carboxylate-1,1-dioxide], the IC50 [1] is reported as 0.0328 µM, the IC50 (trypsin; [2]) is reported as > 60 µM and the IC50 (cathepsin D) is reported as > 50 µM.
With `CC1=C(C(=O)OC(c2ccccc2)c2ccccc2)N2C(=O)[C@H](Br)[C@H]2S(=O)(=O)C12CC2(C)c1ccccc1` (stereo partly drawn) [Example 13 (2), Benzhydryl 7α-bromo-2-spiro(2'-phenyl-2'-methyl) cyclopropyl-3-methyl-3-cephem-4-carboxylate-1,1-dioxide] the IC50 [1] was 0.0557 µM, the IC50 (trypsin; [2]) was 0.147 µM and the IC50 (cathepsin D) was > 46.6 µM.
In the case of `CC1=C(C(=O)N2CCCC2)N2C(=O)[C@H](Br)[C@H]2S(=O)(=O)C12CC2(c1ccccc1)c1ccccc1` (stereo partly drawn) [Example 6, 7α Bromo-2-spiro(2',2'-diphenyl)cyclopropyl-3-methyl-3-cephem-4-pyrrolidine carboxamide-1,1-dioxide], the IC50 [1] is reported as 0.203 µM, the IC50 (trypsin; [2]) is reported as > 39 µM and the IC50 (cathepsin D) is reported as > 9.77 µM.
In the case of `CO[C@H]1C(=O)N2C(C(=O)OC(c3ccccc3)c3ccccc3)=C(C)C3(CC3(c3ccccc3)c3ccccc3)S(=O)(=O)[C@H]12` (stereo partly drawn) [Example 9, Benzhydryl 7α-methoxy-2-spiro (2',2'-diphenyl) cyclopropyl-3-methyl-3-cephem-4-carboxylate-1,1-dioxide], the IC50 [1] is reported as 0.0545 µM, the IC50 (trypsin) is reported as > 10 µM and the IC50 (cathepsin D) is reported as > 8.35 µM.
For `CCO[C@H]1C(=O)N2C(C(=O)OCC(Cl)(Cl)Cl)=C(C)C3(CC3(c3ccccc3)c3ccccc3)S(=O)(=O)[C@H]12` (stereo partly drawn) [Example 7, 2,2,2-Trichloroethyl-7α-ethoxy-2-spiro(2',2'-diphenyl)cyclo-propyl-3-methyl-3-cephem-4-carboxylate-1,1-dioxide], the IC50 [1] was 0.0161 µM, the IC50 (trypsin; [2]) was > 10 µM and the IC50 (cathepsin D) was > 10 µM.
In the case of `CC1=C(C(=O)OC(c2ccccc2)c2ccccc2)N2C(=O)[C@H](Br)[C@H]2S(=O)(=O)C12CC2(c1ccc(Cl)cc1)c1ccc(Cl)cc1` (single isomer, unassigned) [Example 12, Benzhydryl 7α-bromo-2-spiro [2',2'-(4',4'-dichloro)diphenyl]cyclopropyl-3-methyl-3-cephem-4-carboxylate-1,1-dioxide], the IC50 [1] is reported as 0.235 µM, the IC50 (trypsin) is reported as 55.3 µM and the IC50 (cathepsin D) is reported as > 46.2 µM.
For `CO[C@H]1C(=O)N2C(C(=O)OCC(Cl)(Cl)Cl)=C(C)C3(CC3(c3ccccc3)c3ccccc3)S(=O)(=O)[C@H]12` (stereo partly drawn) [Example 8, 2,2,2-Trichloroethyl-7α-methoxy-2-spiro(2',2'-diphenyl) cyclopropyl-3-methyl-3-cephem-4-carboxylate-1,1-dioxide], the IC50 [1] was 0.0228 µM, the IC50 (trypsin; [2]) was 0.648 µM and the IC50 (cathepsin D) was > 9.98 µM.
